The NIST ThermoML archive (doi:10.1021/je301001g)
± gives the expanded uncertainty stated by the source.

Details: for surface tension liquid-gas: Maximal bubble pressure; for mass density / electrical conductivity / viscosity: 101.33 kPa, Liquid; for mass density: Buoyancy - hydrostatic balance; for electrical conductivity: MP522 conductivity instrument; for viscosity: Capillary tube (Ostwald / Ubbelohde) method

CCCCNC(=O)C[n+]1ccn(CC)c1.O=S(=O)([N-]S(=O)(=O)C(F)(F)F)C(F)(F)F showed a surface tension liquid-gas (283.15 K) of 32.7 ± 0.3 mN/m, a mass density (283.15 K) of 1431 ± 0.6 kg/m3 and an electrical conductivity (283.15 K) of 0.00606 ± 0.00014 S/m. The surface tension liquid-gas (288.15 K) was 32.4 ± 0.3 mN/m, the mass density (288.15 K) was 1427 ± 0.6 kg/m3 and the electrical conductivity (288.15 K) was 0.00985 ± 0.00022 S/m. The surface tension liquid-gas (293.15 K) was 32.2 ± 0.3 mN/m, the mass density (293.15 K) was 1422.7 ± 0.6 kg/m3 and the electrical conductivity (293.15 K) was 0.0153 ± 0.00033 S/m. For the same compound, the surface tension liquid-gas (298.15 K) was 31.8 ± 0.3 mN/m, the mass density (298.15 K) was 1418 ± 0.6 kg/m3 and the viscosity (298.15 K) was 777.5 ± 38 mPa·s. For the same compound, the electrical conductivity (298.15 K) was 0.0233 ± 0.0005 S/m, the surface tension liquid-gas (303.15 K) was 31.6 ± 0.3 mN/m and the mass density (303.15 K) was 1413.5 ± 0.5 kg/m3. It also gave a viscosity (303.15 K) of 517.3 ± 23 mPa·s, an electrical conductivity (303.15 K) of 0.0332 ± 0.0007 S/m and a surface tension liquid-gas (308.15 K) of 31 ± 0.3 mN/m. The mass density (308.15 K) was 1409 ± 0.5 kg/m3, the viscosity (308.15 K) was 359 ± 14 mPa·s and the electrical conductivity (308.15 K) was 0.0467 ± 0.001 S/m. The surface tension liquid-gas (313.15 K) was 30.8 ± 0.3 mN/m, the mass density (313.15 K) was 1404.4 ± 0.5 kg/m3 and the viscosity (313.15 K) was 255.2 ± 9 mPa·s. The electrical conductivity (313.15 K) was 0.0639 ± 0.0013 S/m, the surface tension liquid-gas (318.15 K) was 30.5 ± 0.3 mN/m and the mass density (318.15 K) was 1399.7 ± 0.5 kg/m3. The viscosity (318.15 K) was 187.9 ± 5.9 mPa·s, the electrical conductivity (318.15 K) was 0.0854 ± 0.0018 S/m and the surface tension liquid-gas (323.15 K) was 30.3 ± 0.3 mN/m. It also gave a mass density (323.15 K) of 1395.4 ± 0.5 kg/m3, a viscosity (323.15 K) of 138.9 ± 4 mPa·s and an electrical conductivity (323.15 K) of 0.111 ± 0.0023 S/m. The surface tension liquid-gas (328.15 K) was 29.8 ± 0.3 mN/m, the mass density (328.15 K) was 1391 ± 0.5 kg/m3 and the viscosity (328.15 K) was 106 ± 2.8 mPa·s. For the same compound, the electrical conductivity (328.15 K) was 0.141 ± 0.0029 S/m, the surface tension liquid-gas (333.15 K) was 29.4 ± 0.3 mN/m and the mass density (333.15 K) was 1386.7 ± 0.5 kg/m3. For the same compound, the viscosity (333.15 K) was 82.1 ± 2 mPa·s, the electrical conductivity (333.15 K) was 0.177 ± 0.0036 S/m and the surface tension liquid-gas (338.15 K) was 29 ± 0.3 mN/m. The mass density (338.15 K) was 1382.3 ± 0.5 kg/m3, the viscosity (338.15 K) was 64.4 ± 1.5 mPa·s and the electrical conductivity (338.15 K) was 0.219 ± 0.004 S/m. For the same compound, the viscosity (343.15 K) was 53.3 ± 1.2 mPa·s, the viscosity (348.15 K) was 43.5 ± 1 mPa·s and the viscosity (353.15 K) was 35.8 ± 0.8 mPa·s. The viscosity (358.15 K) was 30 ± 0.7 mPa·s and the viscosity (363.15 K) was 25.3 ± 0.6 mPa·s.
